The test system of one assay is Proteus rettgeri BC 7. Kind of assay: In vitro MIC, series dilution test in microtiter system. Type of assay: cell-based. The settings on record: Providencia rettgeri, BC7; Prot. rettg. BC 7; 18 to 20 hours at 37° C.; read-out: minimum inhibitory concentration (MIC). On the procedure:
(§1) For the tests, the method of the series dilution test in the microtiter system was used. The substances were tested for bacteriostasis in a liquid medium. The bacteriostatic activity was tested at the following concentration: 128; 64; 32; 16; 8; 4; 2; 1; 0.5; 0.25; 0.12; 0.06 μg/ml.
(§2) A nutrient medium having the following composition was used: 10 gm of peptone, 8 gm of meat extract oxoid, 3 gm of sodium chloride, 2 gm of sec. sodium phosphate are made up to […] with distilled water (pH 7.2 to 7.4). The age of the primary cultures was about 20 hours.
(§3) The bacterial suspension was adjusted, using the photometer (according to "Eppendorf") (test tube diameter 14 mm, filter 546 nm) by reference to the turbidity of a barium sulfate comparison suspension which was produced by a barium sulfate suspension formed by the addition of 3.0 ml of 1% barium chloride solution to 97 ml of 1% sulfuric acid. After adjustment, Streptococcus aronson was diluted in the ratio 1:15 and the other test pathogens were diluted in the ratio 1:1500 with a common salt solution.
(§4) 16 mg of the test substance were weighed in 10 ml measuring flasks and solvent was added up to the mark. Further dilutions in the series were made with distilled water or the solvent in question.
(§5) The depressions in the microtiter plates were filled with 0.2 ml of nutrient medium, 0.01 ml of the corresponding diluted substance and a drop of bacterial suspension (0.01 ml), and incubated for 18 to 20 hours at 37° C. A solvent check was carried out continuously at the same time.
(§6) The reading was taken macroscopically, and the respective limiting concentration (=the lower concentration still having bateriostatic activity) was determined.
(§7) The following were used as test organisms:
(§8) Escherichia coli ATCC 11 775, Serratia marcescens ATCC 13 880, Klebsiella pneumoniae ATCC 10 031 and BC 6, Proteus Mirabilis BC 17, Proteus rettgeri BC 7, Enterobacter cloacae ATCC 13 047, E. coli R^+ TEM(β-lactamase carrier) and K. pneumoniae 1088 E (β-lactamase carrier).
(§9) Table 1 which follows lists the minimum inhibitory concentrations (MIC) determined for typical representatives of the compounds according to the invention. These are the sodium salts of compounds of the formula I, where A=p-hydroxyphenyl and R is defined as follows: […]

In assay [1] the test system is Enterobacter cloacae ATCC 13 047. The assay is described as above. Format: cell-based. The conditions noted are these: Eb. cloac. ATCC 13047, 18 to 20 hours at 37° C., read-out: minimum inhibitory concentration (MIC). The protocol:
as §1, §2, §3, §4, §5, §6, §7, §8, §9

For assay [2], the system named is Klebsiella pneumoniae ATCC 10 031. Described as above. Type of assay: cell-based. The settings on record: K. pneum. ATCC 10031, 18 to 20 hours at 37° C., read-out: minimum inhibitory concentration (MIC). The protocol: as §1, §2, §3, §4, §5, §6, §7, §8, §9
In assay [3] the test system is Escherichia coli ATCC 11 775. Described as above. Format: cell-based. The settings on record: E. coli ATCC 11775, 18 to 20 hours at 37° C., read-out: minimum inhibitory concentration (MIC). The protocol: as §1, §2, §3, §4, §5, §6, §7, §8, §9
Assay [4] concerns E. coli R^+ TEM(β-lactamase carrier). The description is as above. Type of assay: cell-based. The settings on record: Escherichia coli, read-out: minimum inhibitory concentration (MIC). The protocol:
as §1, §2, §3, §4, §5, §6, §7, §8, §9

Assay [5] relates to Serratia marcescens ATCC 13 880. Described as above. Format: cell-based. The conditions noted are these: Serr. marc. ATCC 13880, 18 to 20 hours at 37° C., read-out: minimum inhibitory concentration (MIC). The protocol: as §1, §2, §3, §4, §5, §6, §7, §8, §9
The test system of assay [6] is Klebsiella pneumoniae BC 6. The assay is described as above. Format: cell-based. The settings on record: BC6, K. pneum. BC 6, 18 to 20 hours at 37° C., read-out: minimum inhibitory concentration (MIC). On the procedure: as §1, §2, §3, §4, §5, §6, §7, §8, §9
The test system of the next assay is Proteus Mirabilis BC 17. The description is as above. Type of assay: cell-based. The settings on record: Prot. mir. BC 17, 18 to 20 hours at 37° C., read-out: minimum inhibitory concentration (MIC). On the procedure:
as §1, §2, §3, §4, §5, §6, §7, §8, §9

The subject of assay [7] is K. pneumoniae 1088 E (β-lactamase carrier). The description is as above. Format: cell-based. The conditions noted are these: Klebsiella pneumoniae, K. pneum. 1088 E, 18 to 20 hours at 37° C., read-out: minimum inhibitory concentration (MIC). On the procedure: as §1, §2, §3, §4, §5, §6, §7, §8, §9
Assay [8] deals with 20 Serratia marcescens carrying β-lactamase. Kind of assay: In vitro activity against 20 Serratia marcescens carrying β-lactamase, compared with Temocillin. Type of assay: cell-based. The settings on record: Serr. marc. (20). On the procedure:
as §1, §2, §3, §4, §5, §6

Another assay has as its system E. coli ATCC 11775. Put plainly: In vivo test on experimental E. coli infection in mice. The conditions noted are these: Escherichia coli, ATCC11775, sc, 168 h, subcutaneous, one treatment 1 hour post infectionem, observation period 7 days, read-out: ED50 (dose at which 50% of the animals survived). More on the design: species or system E. coli; female mice of the NMRI strain. On the procedure:
A number of the compounds according to the invention were tested in vivo on experimental infections in mice. E. coli ATCC 11775 were used as the pathogenic bacteria. An intraperitoneal infection was produced with 0.2 ml of a 5% mucin suspension of the bacteria. This corresponds to about 1.4×10^6 E. coli bacteria per mouse. Female mice of the NMRI strain were divided up into groups of 10 animals, two groups were untreated, the other groups were treated subcutaneously with various doses of the penicillin according to the invention, to determine the ED50 (dose at which 50% of the animals survived). One treatment was given (1 hour post infectionem).
In both cases, the observation period was 7 days. The results of these tests with 2 representatives of the penicillins according to the invention, compared with Temocillin, are shown in Table 3 which follows: […]

Setting [9] is: inoculum 5 × 10^4, read-out: Geometric Mean (MIC).
Setting [10] is: inoculum 5 × 10^4, read-out: MIC Range.
[11] abbreviates: inoculum 5 × 10^6, read-out: Geometric Mean (MIC).

Values after ≈ are worked out from the molar mass of the structure shown. Read-outs that look alike come from different tables or passages of the source.

With `CO[C@@]1(NC(=O)C(NC(=O)Nc2cnc(Nc3ccc(S(N)(=O)=O)cc3)nc2O)c2ccc(O)cc2)C(=O)N2[C@@H](C(=O)O)C(C)(C)S[C@@H]21` (stereo partly drawn) [A], the MIC was 2 µg/mL (≈ 2.85 µM) in the assay with Proteus rettgeri BC 7; 1 µg/mL (≈ 1.42 µM) in assay [1]; 1 µg/mL (≈ 1.42 µM) in [2]; 1 µg/mL (≈ 1.42 µM) in assay [3]; 1 µg/mL (≈ 1.42 µM) in assay [4]; 1 µg/mL (≈ 1.42 µM) in assay [5]. Besides, the MIC in [6] was 1 µg/mL (≈ 1.42 µM); in the assay on Proteus Mirabilis BC 17, 1 µg/mL (≈ 1.42 µM); in [7], 4 µg/mL (≈ 5.69 µM); in assay [8] (setting [9]) it was 2.8 µg/mL (≈ 3.98 µM); in [8] (setting [10]) it was 2 to 8 µg/mL (≈ 2.85 to 11.4 µM); in assay [8] (setting [11]) it was 10.2 µg/mL (≈ 14.5 µM). Besides, the MIC in assay [8] (inoculum 5 × 10^6, read-out: MIC Range) fell in the range of 4 to 32 µg/mL (≈ 5.69 to 45.5 µM). Further, the ED50 in the assay on E. coli ATCC 11775 worked out at 4 mg/kg.

As for `CO[C@@]1(NC(=O)C(NC(=O)Nc2cnc(NCc3ccc(S(N)(=O)=O)s3)nc2O)c2ccc(O)cc2)C(=O)N2[C@@H](C(=O)O)C(C)(C)S[C@@H]21` (stereo partly drawn) [C], the MIC turned out to be 2 µg/mL (≈ 2.77 µM) in the assay on Proteus rettgeri BC 7; 1 µg/mL (≈ 1.38 µM) in assay [1]; 1 µg/mL (≈ 1.38 µM) in assay [2]; 1 µg/mL (≈ 1.38 µM) in assay [3]; 2 µg/mL (≈ 2.77 µM) in assay [4]; 2 µg/mL (≈ 2.77 µM) in assay [5]. Also, the MIC in [6] was 1 µg/mL (≈ 1.38 µM); in the assay on Proteus Mirabilis BC 17, 0.12 µg/mL (≈ 0.166 µM); in assay [7] it was 8 µg/mL (≈ 11.1 µM).

As to `CO[C@@]1(NC(=O)C(C(=O)O)c2ccsc2)C(=O)N2[C@@H](C(=O)O)C(C)(C)S[C@@H]21` (stereo partly drawn) [Compound E, Temocillin, reference compound], the MIC in the assay on Proteus rettgeri BC 7 turned out to be 4 µg/mL (≈ 9.65 µM); in assay [1] it was 4 µg/mL (≈ 9.65 µM); in assay [2] it was 4 µg/mL (≈ 9.65 µM); in assay [3], 4 µg/mL (≈ 9.65 µM); in assay [4], 8 µg/mL (≈ 19.3 µM); in [5] it was 8 µg/mL (≈ 19.3 µM). Besides, the MIC is 2 µg/mL (≈ 4.83 µM) in [6]; 2 µg/mL (≈ 4.83 µM) with Proteus Mirabilis BC 17; 4 µg/mL (≈ 9.65 µM) in assay [7]; 10.2 µg/mL (≈ 24.6 µM) in [8] (setting [9]); 8 to 16 µg/mL (≈ 19.3 to 38.6 µM) in assay [8] (setting [10]); 24.3 µg/mL (≈ 58.6 µM) in assay [8] (setting [11]). The 50% effective dose (ED50) in the assay on E. coli ATCC 11775 was over 20 mg/kg.

As for `CO[C@@]1(NC(=O)C(NC(=O)Nc2cnc(NCc3ccc(S(N)(=O)=O)cc3)nc2O)c2ccc(O)cc2)C(=O)N2[C@@H](C(=O)O)C(C)(C)S[C@@H]21` (stereo partly drawn) [D], the MIC was found to be 4 µg/mL (≈ 5.58 µM) in the assay on Proteus rettgeri BC 7; 1 µg/mL (≈ 1.4 µM) in assay [1]; 1 µg/mL (≈ 1.4 µM) in assay [2]; 2 µg/mL (≈ 2.79 µM) in assay [3]; 2 µg/mL (≈ 2.79 µM) in [4]; 2 µg/mL (≈ 2.79 µM) in assay [5]. Besides, the MIC in [6] turned out to be 1 µg/mL (≈ 1.4 µM); in the assay on Proteus Mirabilis BC 17, 0.5 µg/mL (≈ 0.698 µM); in assay [7] it was 8 µg/mL (≈ 11.2 µM).
